Measured values as given in paper PMC12526212, “Novel Isolongifolenone-Based Caprolactam Derivatives as Potential Anticancer Agents via the p53/mTOR/Autophagy Pathway” (Molecules, 2025).

How the values were obtained:
[1] = test system: MCF-7 cells; experiment: Autophagy assay using transmission electron microscopy; assay type: cell-based, human; details: 24 h
Experimental: To investigate whether E10 induced autophagy in MCF-7 cells, we performed Monodansylcadaverine (MDC) staining, transmission electron microscopy (TEM), and Western blot analysis to evaluate autophagy-related markers. MDC is a fluorescent probe commonly used to detect the formation of autophagic vacuoles, as it specifically labels autophagosomes.
MCF-7 cells were treated with E10 for 24 h. Cells were washed twice with pre-cold PBS, fixed in 2% glutaraldehyde at 4 °C for 2 h. Then, the sample was post-fixed in 2% osmium tetroxide for 1 h at 4 °C in the dark. Samples were dehydrated through a graded ethanol series, infiltrated and embedded in Spurr’s resin, and polymerized at 60 °C overnight. Ultrathin sections (~70–90 nm) were cut on an ultramicrotome, mounted on copper grids, counterstained with uranyl acetate and lead citrate, and examined by transmission electron microscopy (JEM-100CX; JEOL, Tokyo, Japan) at the indicated magnifications.

[2] = test system: MCF-7 multicellular tumor spheroids; experiment: 3D spheroid tumor model (calcein AM/PI); assay type: cell-based, human; details: E10 1, 5 and 10 μM, 4 days
Text: Three-dimensional (3D) cell culture provides an environment that allows cells to grow and interact with their surroundings in all spatial dimensions, closely mimicking the physiological conditions found in vivo [44]. […] To evaluate the long-term antitumor effects of E10 in a more physiologically relevant model, a 3D spheroid tumor model was established using MCF-7 breast cancer cells. Each spheroid was formed by approximately 2000 MCF-7 cells and cultured for 3 days to allow spheroid maturation. These spheroids were subsequently treated with varying concentrations of E10 (1, 5, and 10 μM) at 48-h intervals over a period of 4 days. For visualization, the multicellular tumor spheroids (MCTSs) were stained with calcein AM and propidium iodide (PI) in culture medium for 1.5 h. The live/dead cell distribution within the spheroids was then visualized using laser scanning confocal microscopy. […] This limited cell death is likely attributable to hypoxic and nutrient-deprived conditions resulting from excessive cell proliferation.
[…] MCF-7 cells were seeded into cell-repellent 96-well U-bottom plates (Sbio, Tokyo, Japan) at a density of 3000 cells per well and cultured for 72 h to promote spheroid formation. […] After treatment, spheroids were stained with 5 μM PI and 10 μM Calcein-AM, and observed under a fluorescence microscope (Olympus, Tokyo, Japan).

Compound: CC1(C)C2=CC(=O)N(C(=O)C=Cc3cccc(C(F)(F)F)c3)CC(C)(C)C23CCC1C3 (centres unmarked) [E10, 5,5,9,9-Tetramethyl-3-(3-(3-(trifluoromethyl)phenyl)acryloyl)-4,5,6,7,8,9-hexahydro-5a,8-methanobenzo[d]azepin-2(3H)-one]
- TEM, autophagic vesicles [1]: presence of membrane-bound autophagic vesicles
- viability and structural integrity of MCF-7 MCTSs [2]: dose-dependent inhibitory effect
